Measurements reported in paper PMC7927014, “Novel Small Molecule Hsp90/Cdc37 Interface Inhibitors Indirectly Target K-Ras-Signaling” (Cancers, 2021).

Legend:
Hsp90/Cdc37 = test: FIMM screening in split Renilla luciferase assay with hypomorphic NRL-Hsp90 construct, 20 μM; type: biochemical; conditions: for Average RLU (FIMM Screening-1): DMSO 50019
Experimental: In the second in silico screening of the FIMM database, we employed the four identified chemical scaffolds (Figure S2B) for the visual inspection of the FIMM compound library. […] All of the purchased compounds were validated in vitro at 20 μM using the split Renilla luciferase assay.
The Hsp90/Cdc37 split Renilla luciferase assay using the full length Hsp90 for the compound screening was described previously. […] After 48 h, the cells were trypsinized and washed with PBS. The harvested cells were lysed in 1 mL of the 1x lysis buffer provided in the Renilla Luciferase Reporter Assay System Kit from Promega (cat. E2820), and were incubated on ice for 10 min. The cell lysates were then cleared by centrifugation at 13,000× g for 1 min. […] After this, the screening/test compounds or DMSO—as indicated—were added to each well. In total, 5 µL NRL-Hsp90- or NRL-N-Hsp90-lysate was added to each well, one row at a time. Subsequently, the plate was incubated for 5 min at room temperature (RT). […] Just before the reading, 20 µL assay buffer containing 2× Renilla luciferase substrate (coelenterazine) was added. For the FIMM screening, sample wells were read on a PHERAstar plate reader (BMG LABTECH) at a gain level of 4000, after 10 s shaking, using a hypomorph of NRL-Hsp90. For the subsequent validations of the compounds, sample wells with the above-described assay constructs were read using a synergy H1 Hybrid Multi-Mode reader (BioTek) in the luminescence detection mode, as described previously in detail.

Hsp90, Hsp70 = test: Western blotting of Hsp90 and Hsp70 (heat shock response); type: cell-based; conditions: Western blot, 24 h; four cancer cell lines; 17-AAG 2 μM
Experimental: The cells in the RIPA buffer were placed on ice for 20 min, and were then sonicated in ice cold water for 5 min. […] Equal amounts of protein were separated by 10% SDS-PAGE, and were then transferred onto a nitrocellulose membrane (cat. no. NBA 083C001EA, Protran) using a wet transfer system (Bio-Rad) or semidry Transferblot Turbo Transfer System (Bio-Rad). After the transfer, the membranes were blocked for 30 min in 5% skimmed milk dissolved in 1× TBST, and then incubated with 1:2000 primary antibodies in 5% BSA in TBST at 4 °C overnight.
The next day, the membranes were washed three times in TBST for 10 min, and then incubated with secondary antibodies (1:5000) diluted in 5% skimmed milk in TBST for 1 h at RT. […] All of the antigens and molecular weights in kDa are labelled next to the blots on the figures. Uncropped Western blot data are attached as Figure S6.

MCF 10A cells = test: 2D cell proliferation (alamarBlue); type: cell-based; conditions: Homo sapiens, 72 h
Experimental: (§1) Per well, 500–700 cells were seeded in 96-well flat bottom culture plates in 100 µL. After 24 h, the cells were treated with 0.1% DMSO vehicle control or test compounds diluted in a medium using a 1:2 dilution-series, starting at 100 µM. The plates were further incubated for 72 h. The cell viability was measured after the addition of 10% alamarBlue reagent per well (cat. no. DAL1100, Thermo Fisher Scientific). The fluorescence intensity (excitation 560 nm and emission 590 nm) was measured after 4 h by the use of a H1 Hybrid Multi-Mode reader.

SK-BR-3 cells = test: 2D cell proliferation (alamarBlue); type: cell-based; conditions: Homo sapiens; SK-BR-3 (breast, n.a.), 72 h
Experimental: as §1

HEK293 EBNA cells = test: 2D cell proliferation (alamarBlue); type: cell-based; conditions: Homo sapiens, 72 h
Experimental: as §1

MIA PaCa-2 cells = test: 2D cell proliferation (alamarBlue); type: cell-based; conditions: Homo sapiens; MIA PaCa-2 (pancreas), 72 h
Experimental: as §1

HCC-44 cells = test: 2D cell proliferation (alamarBlue); type: cell-based; conditions: Homo sapiens, HCC44; HCC-44 (lung, G12C), 72 h
Experimental: as §1

K-RasG12V nanoclustering = test: K-RasG12V nanoclustering-FRET (FLIM-FRET) in HEK cells; type: cell-based; conditions: 24 h, conglobatin A 2 μM, salinomycin 1.3 μM, 17-AAG 2 μM, CAY10585 10 μM, hit compounds indicated concentrations
Experimental: In total, 80,000 HEK cells were seeded in 12-well plates containing sterilized 16-mm coverslips and 1 mL medium. The next day, the cells were transfected using jetPRIME or FuGENE HD transfection reagent. For the donor fluorophore-only samples, the cells were transfected with 500 ng mGFP-tagged RasG12V plasmid. For the nanoclustering-FRET pair samples, the cells were transfected with both the donor and acceptor constructs, i.e., pmGFP- and pmCherry- RasG12V at a plasmid ratio of 1:3, respectively, and a total of 800 ng plasmids. The next day, the cells were treated with either 0.1% DMSO vehicle control or the indicated concentrations of compounds diluted in DMEM or RPMI medium for 24 h. For the gene silencing studies, the cells were transfected with the indicated amounts of siRNAs, together with the FRET pair constructs. The plasmids and siRNA were diluted in the same jetPRIME transfection buffer, followed by the addition of jetPRIME. […] The lifetime of the mGFP donor fluorophore was measured using a fluorescence microscope (Zeiss AXIO Observer D1) equipped with a fluorescence lifetime imaging attachment (Lambert Instruments), as described previously in detail. The apparent FRET efficiency (Eapp) was calculated as Eapp = (1 − τDA/τD) × 100%, with the measured fluorescence lifetimes τDA of the FRET sample and the τD of the donor-only sample.

Hsp90α (N-terminal) = biological target: T1, Hsp90α (N-terminal) (Homo sapiens, UniProt P07900); test: Hsp90 N-terminal ATP-binding site competition assay (FITC-geldanamycin fluorescence polarization)
T1 construct: purchased BPS Bioscience 50298
Experimental: The reaction was initiated by adding 35 ng/μL purified recombinant Hsp90α, and was incubated at RT with slow shaking for 2 h. All of the reactions were performed in a black, low binding NUNC microtiter plate, included in the kit, and the total reaction volume was 50 μL. The enzyme control was measured without the test compound, and the enzyme background control was measured without the test compound or Hsp90α. […] All of the controls and the blank contained 10% DMSO, as did all of the samples of the test compounds. All of the samples were analyzed as duplicates. […] The blank value was subtracted from all of the other values, and the fluorescence polarization was determined as:(1) mP = ((III − I⊥)/(III+ I⊥)) × 1000 where III is the intensity of the parallel, and I┴ the intensity of the perpendicular polarized light.

| SMILES | normalized RLU (FIMM Screening-1) (Hsp90/Cdc37; DMSO = 1.00) | Average RLU (FIMM Screening-1) (Hsp90/Cdc37; mean of 3 wells) [RLU] | induction of Hsp90 or Hsp70 expression (heat shock response) (Hsp90, Hsp70) | IC50 (MCF 10A cells) [µM] | IC50 (SK-BR-3 cells) [µM] | IC50 (HEK293 EBNA cells) [µM] | IC50 (MIA PaCa-2 cells) [µM] | IC50 (HCC-44 cells) [µM] | K-RasG12V nanoclustering-FRET (K-RasG12V nanoclustering) | competition with FITC-geldanamycin (ATP-pocket binding, polarization signal) (Hsp90α (N-terminal); 20 μM compound) | competition with FITC-geldanamycin (ATP-pocket binding, polarization signal) (Hsp90α (N-terminal); up to 50 μM (12.5, 25, 50 μM)) | normalized RLU (FIMM Screening-2, scaffold based) (Hsp90/Cdc37; DMSO = 1.00) | Average RLU (FIMM Screening-2, scaffold based) (Hsp90/Cdc37; mean of 3 wells, DMSO 51006) [RLU] |
| --- | --- | --- | --- | --- | --- | --- | --- | --- | --- | --- | --- | --- | --- |
| CCOc1ccc(C(=O)c2ccc(O)c(O)c2O)cc1 [×1540, 2,3,4-TRIHYDROXY-4'-ETHOXYBENZOPHENONE] | 0.76 | 37962 | not inducing | 172 | 36 ± 3 | 89 | 23 ± 2 | 49 ± 6 | displayed K-Ras-selectivity | None of these four compounds displaced | did not do so |  |  |
| C/C1=C\[C@H](C)C[C@H](C)[C@H](Cc2cnco2)OC(=O)/C(C)=C/[C@H](C)C[C@H](C)[C@H](Cc2cnco2)OC1=O [conglobatin A, reference compound] | 0.51 | 25349 |  |  |  |  |  |  | selective inhibition of K-RasG12V- |  |  | 0.49 | 25048 |
| N=C(CSS(=O)(=O)O)NCC12CC3CC(CC(C3)C1)C2 [×6506, [({N-[(adamantan-1-yl)methyl]carbamimidoyl}methyl)sulfanyl]sulfonic acid] |  |  | not inducing | 64 | 36 ± 4 | 47 | 25 ± 2 | 28 ± 4 | displayed K-Ras-selectivity | None of these four compounds displaced | did not do so |  |  |
